Values after ≈ are worked out from the molar mass of the structure shown. Read-outs that look alike come from different tables or passages of the source.
Key:
[1] = test system: R. nigracans (ASU culture collection); assay: Broth macrodilution MIC/MFC, filamentous fungi; assay type: cell-based, Rhizopus nigracans
Method: (§1) Susceptibility testing of filamentous fungi was also conducted. Broth macrodilution susceptibility testing of P. lilacinus, Rhizopus spp. and Aspergillus spp. was performed in accordance with a proposed standardized procedure with slight modification. To induce conidium and sporangiospore formation, fungi were grown on PDA slants at 35° C. for 6 days (P. lilacinus, Rhizopus spp., all Aspergillus species except A. nidulans) or 3 days (A. nidulans). Fungal slants were covered with sterile 0.85% NaCl (P. lilacinus, Rhizopus spp., all Aspergillus species except A. nidulans) or 0.05% Tween 80 (A. nidulans), and suspensions were made by gently probing the colonies with the tip of a sterile Pasteur pipette. The resulting mixture of hyphal fragments and conidia or sporangiospores was withdrawn and transferred to a sterile clear microcentrifuge tube, and heavy particles were allowed to settle for 10 min. […] Susceptibility to TMPN was then determined by broth macrodilution as described above for yeast isolates. […]
(§2) Minimum fungicidal concentrations (MFCs) were determined by subculturing 0.1 ml from each tube with no visible growth in the MIC broth macrodilution series onto the appropriate drug-free plates (see Fungal Strains section above).

[2] = test system: T. inkin (ATCC 18020); assay: Frequency of occurrence of spontaneous mutants; assay type: cell-based, Trichosporon inkin; details: four times the broth macrodilution MIC
Method: (§3) Determination of the frequency of occurrence of spontaneous mutants was performed as previously described. Overnight cultures of C neoformans (ATCC 90112), C. albicans (ATCC 90028) and Trichosporon inkin (ATCC 18020) were diluted to an OD530 nm=0.3. 0.1 ml of each preparation was spread onto SDA plates containing four or eight times the broth macrodilution MIC of TMPN. The starting inoculum for each organism was also diluted and plated onto drug-free SDA plates for determination of cfu/ml. After a 48 h incubation at the appropriate temperature (see Fungal Strains section above), the number of colonies on drug-supplemented SDA was counted. The frequency of occurrence of spontaneous mutants was calculated by dividing the number of colonies on drug-containing plates by the number of colonies in the inoculum. When no colonies were visualized on drug-containing plates, the calculation was (<) 1 colony divided by the number of colonies in the inoculum.

[3] = test system: A. niger (ASU culture collection); assay: Broth macrodilution MIC/MFC, filamentous fungi; assay type: cell-based, Aspergillus niger
Method: as §1, §2

[4] = test system: C. rugosa (7); assay: Broth macrodilution MIC/MFC; assay type: cell-based, Candida rugosa
Method: (§4) TMPN was screened against yeasts by the broth macrodilution assay according to the NCCLS [7]. Yeasts were suspended and diluted as recommended to yield final inocula ranging from 0.5-2.5×10^3 cfu/ml. Tests were performed in sterile 12 by 75 mm plastic tubes containing two-fold dilutions of TMPN in 0.165 M morpholinepropanesulfonic acid buffered RPMI 1640 medium (pH 7.0). One tube was again left drug free (but contained an equivalent volume of DMSO) for a turbidity control. Tubes were incubated without agitation at the appropriate temperature (see Fungal Strains section above). MICs were determined after 72 h for Cryptococcus and after 48 h for other yeast genera. The MIC was defined as the lowest concentration of TMPN that inhibited all visible growth of the test organism (optically clear).
as §2

[5] = test system: C. albicans (ATCC 90028); assay: Frequency of occurrence of spontaneous mutants; assay type: cell-based, Candida albicans; details: four times the broth macrodilution MIC
Method: as §3

[6] = test system: T. inkin ATCC 18020; assay: Broth macrodilution MIC/MFC; assay type: cell-based, Trichosporon inkin; details: for MFC: Trichosporon inkin ATCC 18020; for MIC: Trichosporon inkin
Method: as §4, §2
Possible host effects were also evaluated. Broth macrodilution assays were performed with RPMI medium prepared at pH 5, pH 6, and pH 7, and in RPMI medium with and without 50% normal human serum (Lampire Biological Labs). The pH experiments were performed twice on separate days.

[7] = test system: C. neoformans (ATCC 90112); assay: Frequency of occurrence of spontaneous mutants; assay type: cell-based, Cryptococcus neoformans; details: four times the broth macrodilution MIC
Method: as §3

[8] = test system: T. ovoides ATCC 90040; assay: Broth macrodilution MIC/MFC; assay type: cell-based, Trichosporon ovoides
Method: as §4, §2

[9] = test system: C. albicans (ATCC 90028); assay: Video-enhanced DIC microscopy of yeast/hyphal morphology; assay type: cell-based, Candida albicans
From the text: The mechanism of action of TMPN was investigated microscopically, Candida albicans (ATCC 90028) cultures were exposed to one quarter or one half times the broth macrodilution MIC of TMPN in DMSO, or an equivalent concentration of DMSO for controls, until late-log phase. Cells were examined using an Axioscope microscope (Carl Zeiss, Thornwood, N.Y.) equipped with standard differential interference contrast (DIC) using a Plan-Neofluar 100×/1.3 (oil immersion) objective. The microscope was coupled to a C24007-07 (imaging tube camera type) video camera, via a 4×extension tube (Carl Zeiss), and an analog control unit (Hammamatsu Photonic Systems Corp., Bridgewater, N.J.). Real-time digital contrast enhancement was done with an Argus 10 Image Processor (Hammamatsu). Single frame images were digitized directly or from videotaped sequences using a Sony UP-5600MD video/digital printer (Sony Electronics, Inc., Montvale, N.J.) and prepared for printing in Photoshop 5.0 (Adobe Systems, Mountain View, Calif.). Final images were printed with a NP-1600M Medical Color Printer (Codonics, Inc., Middleburg Heights, Ohio).

[10] = test system: Amphotericin B-resistant C. lusitaniae ATCC 42720; assay: Broth macrodilution MIC/MFC; assay type: cell-based, Candida lusitaniae
Method: as §4, §2

[11] = test system: A. flavus (ASU culture collection); assay: Broth macrodilution MIC/MFC, filamentous fungi; assay type: cell-based, Aspergillus flavus
Method: as §1, §2

## COc1cc(C=C[N+](=O)[O-])cc(OC)c1OC [TMPN, 1-(3′,4′,5′-trimethoxyphenyl)-2-nitro-ethylene]
[1]
  MFC Range: >64 µg/mL
  MIC Range: 32 µg/mL (≈ 134 µM)
[2]
  frequency of occurrence of single-step resistant mutants: ≤ 10^−6
[3]
  MFC Range: 64 µg/mL (≈ 268 µM)
  MIC Range: 16 µg/mL (≈ 66.9 µM)
[4]
  MIC Range: 1 to 64 µg/mL
[5]
  frequency of occurrence of single-step resistant mutants: ≤ 10^−6
[6]; ATCC18020, pH 6, pH6, read-out: MFC
  MFC: 16 µg/mL (≈ 66.9 µM)
[6]; ATCC18020, pH 7, pH7, read-out: MFC
  MFC: 16 µg/mL (≈ 66.9 µM)
[6]; ATCC18020, no serum, read-out: MFC
  MFC: 16 µg/mL (≈ 66.9 µM)
[6]; ATCC18020, pH 5, read-out: MFC
  MFC: 8 µg/mL (≈ 33.4 µM)
[6]; T. inkin ATCC 18020
  MFC Range: 16 µg/mL (≈ 66.9 µM)
  MIC Range: 8 µg/mL (≈ 33.4 µM)
[6]; pH 5, repeat experiment
  MFC: 8 µg/mL (≈ 33.4 µM)
[6]; pH6, repeat experiment
  MFC: 16 µg/mL (≈ 66.9 µM)
[6]; pH7, repeat experiment
  MFC: 16 µg/mL (≈ 66.9 µM)
[6]; ATCC18020, Trichosporon inkin ATCC 18020, 50% human serum
  MIC: > 64 µg/mL
[6]; ATCC18020, Trichosporon inkin ATCC 18020, no serum
  MIC: 8 µg/mL (≈ 33.4 µM)
[6]; ATCC18020, pH 5, Trichosporon inkin ATCC 18020, pH 5
  MIC: 4 µg/mL (≈ 16.7 µM)
[6]; ATCC18020, pH 5, Trichosporon inkin ATCC 18020, pH 5, repeat experiment
  MIC: 4 µg/mL (≈ 16.7 µM)
[6]; ATCC18020, pH 6, Trichosporon inkin ATCC 18020, pH6
  MIC: 8 µg/mL (≈ 33.4 µM)
[6]; ATCC18020, pH 6, Trichosporon inkin ATCC 18020, pH6, repeat experiment
  MIC: 8 µg/mL (≈ 33.4 µM)
[6]; ATCC18020, pH 7, Trichosporon inkin ATCC 18020, pH7
  MIC: 8 µg/mL (≈ 33.4 µM)
[6]; ATCC18020, pH 7, Trichosporon inkin ATCC 18020, pH7, repeat experiment
  MIC: 8 µg/mL (≈ 33.4 µM)
[7]
  frequency of occurrence of single-step resistant mutants: ≤ 10^−6
[8]
  MFC Range: 32 µg/mL (≈ 134 µM)
  MIC Range: 16 µg/mL (≈ 66.9 µM)
[9]; one half times the TMPN MIC
  cells with hyphal extensions: not observed
  growth morphology observed (FIG. 4 panel b): only yeast growth
  growth rate: same rate as controls
[9]; one quarter times the TMPN MIC
  hyphae seen: rarely seen
  length of hyphae: < 20 μm
[9]; sub-MIC exposure
  yeast/hyphae switching: did not exhibit yeast/hyphae switching
[10]
  MFC Range: 16 µg/mL (≈ 66.9 µM)
  MIC Range: 16 µg/mL (≈ 66.9 µM)
[11]
  MFC Range: >64 µg/mL
  MIC Range: 16 µg/mL (≈ 66.9 µM)

Reference: patent publication US20050014849A1, “Antifungal phenylethylene” (priority 2001, published 2005)
